{
  "source": "paper PMC7767166",
  "about": "“Imidazole and Imidazolium Antibacterial Drugs Derived from Amino Acids” (Pharmaceuticals, 2020)",
  "origin": "cited, not measured here",
  "key": {"[1]": {"test_system": "B. subtilis", "design": "method as in PMID 26777771", "conditions": "cited from earlier work"}, "[2]": {"test_system": "MRC-5 cells", "design": "method as in PMID 19407848", "conditions": "cited from earlier work"}},
  "note": "Marks after values point to notes of the source that are not given here.",
  "data": [
    {"substance": "Alamethicin", "values": [
      {"measurement": "B. subtilis MIC", "setting": "[1]", "result": 16, "unit": "µg/mL"},
      {"measurement": "IC50 (cytotoxicity against MRC-5 cells)", "setting": "[2]", "result": "62.5 ^f [42] μg/mL"}
    ]}
  ]
}
